# pEC50, pIC50: −log10 of the molar value. Calls of active or inactive are those of the source. The rule behind the calls is not given here.
# Key:
# [1] = target: T1, 5'-AMP-activated protein kinase subunit beta-1 (Rattus norvegicus, UniProt P80386); assay: Activation of rat liver AMPK-beta1 using SAMS peptide as substrate incubated for 10 mins by microplate reader assay; format: tissue-based
# T1 sequence (P80386 whole entry): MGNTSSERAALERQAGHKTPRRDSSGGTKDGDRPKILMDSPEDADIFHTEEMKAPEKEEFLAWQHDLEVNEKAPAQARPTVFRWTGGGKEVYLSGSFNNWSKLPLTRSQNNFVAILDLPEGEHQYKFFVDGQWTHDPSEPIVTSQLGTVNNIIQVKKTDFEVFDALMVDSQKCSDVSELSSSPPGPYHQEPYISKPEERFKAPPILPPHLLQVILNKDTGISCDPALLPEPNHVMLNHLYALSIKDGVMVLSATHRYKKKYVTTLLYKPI
# [2] = target: AMPK alpha2/beta2/gamma1 (Homo sapiens) (UniProt P54646+O43741+P54619); assay: Activation of human recombinant AMPK A2/B2/G1 assessed as increase in AMPK phosphorylation using FL-peptide as substrate incubated for 120 mins by EZ reader method; format: protein-complex assay
# Cytochrome P450 2D6 = Cytochrome P450 2D6 (Homo sapiens, UniProt P10635); assay: Inhibition of CYP2D6 in human liver microsomes using dextromethorphan as substrate; format: ADME, Microsome
# [3] = Metabolic stability in human liver microsomes assessed as compound remaining measured after 30 mins; format: ADME, Microsome; conditions: read-out: Stability
# Cytochrome P450 3A4 = Cytochrome P450 3A4 (Homo sapiens, UniProt P08684); assay: Inhibition of CYP3A4 in human liver microsomes using terfenedine as substrate; format: ADME, Microsome
# [4] = AUC in rat at 1 mg/kg, po; format: ADME, organism-based; parameters: dose 1 mg/kg, route po; conditions: in vivo
# Cytochrome P450 2C9 = Cytochrome P450 2C9 (Homo sapiens, UniProt P11712); assay: Inhibition of CYP2C9 in human liver microsomes using tolbutamide as substrate; format: ADME, Microsome
# [5] = Metabolic stability in rat liver microsomes assessed as compound remaining measured after 30 mins; format: ADME, Microsome; conditions: read-out: Stability
# Cytochrome P450 1A2 = target: T2, Cytochrome P450 1A2 (Homo sapiens, UniProt P05177); assay: Inhibition of CYP1A2 in human liver microsomes using 7-ethoxyresorufin as substrate; format: ADME, Microsome
# T2 sequence (P05177 whole entry): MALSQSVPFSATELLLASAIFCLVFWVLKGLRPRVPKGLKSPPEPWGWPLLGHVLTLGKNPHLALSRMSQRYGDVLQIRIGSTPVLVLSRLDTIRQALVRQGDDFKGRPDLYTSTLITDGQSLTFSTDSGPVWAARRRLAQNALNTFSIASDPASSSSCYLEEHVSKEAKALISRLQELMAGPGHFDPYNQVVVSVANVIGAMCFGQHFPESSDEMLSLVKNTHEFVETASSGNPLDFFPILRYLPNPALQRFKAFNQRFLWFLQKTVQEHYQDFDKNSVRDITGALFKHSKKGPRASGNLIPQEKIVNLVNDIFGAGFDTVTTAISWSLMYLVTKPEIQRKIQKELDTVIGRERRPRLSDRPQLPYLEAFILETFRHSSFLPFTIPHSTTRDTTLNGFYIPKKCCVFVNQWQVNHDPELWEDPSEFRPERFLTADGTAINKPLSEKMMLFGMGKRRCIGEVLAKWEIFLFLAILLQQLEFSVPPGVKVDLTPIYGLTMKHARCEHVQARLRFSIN
# [6] = […] of the compound in rat liver at 1 mg/kg, po or 0.5 mg/kg, iv; format: ADME, organism-based
# [7] = […] of the compound in rat muscle at 1 mg/kg, po or 0.5 mg/kg, iv; format: ADME, organism-based
# Cytochrome P450 2C19 = Cytochrome P450 2C19 (Homo sapiens, UniProt P33261); assay: Inhibition of CYP2C19 in human liver microsomes using mephenytoin as substrate; format: ADME, Microsome
# [8] = Protein binding in serum (unknown origin) assessed as unbound fraction by equilibrium dialysis assay; format: ADME, cell-free
# [9] = Cmax in rat at 1 mg/kg, po or 0.5 mg/kg, iv; format: ADME, organism-based; parameters: dose 1 mg/kg, route po; conditions: in vivo
# [10] = target: T3, 5'-AMP-activated protein kinase subunit beta-2 (Homo sapiens, UniProt O43741); assay: Activation of recombinant AMPK-beta2 (unknown origin) assessed as increase in AMPK phosphorylation by DELFIA fluorescence assay
# T3 sequence (O43741 whole entry): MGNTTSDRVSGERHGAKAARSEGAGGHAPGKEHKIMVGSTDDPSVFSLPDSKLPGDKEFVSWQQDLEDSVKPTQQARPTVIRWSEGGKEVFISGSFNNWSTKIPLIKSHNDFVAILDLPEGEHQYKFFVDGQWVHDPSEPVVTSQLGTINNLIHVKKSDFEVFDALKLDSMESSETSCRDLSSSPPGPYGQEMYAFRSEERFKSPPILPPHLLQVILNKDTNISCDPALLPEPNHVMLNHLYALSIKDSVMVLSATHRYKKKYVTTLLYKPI
# Mus musculus [11] = assay: Antidiabetic activity against type 2 diabetic KKAy mouse model assessed as decrease in plasma glucose level administrated orally bid measured after 21 days of administration by automatic analyzer; format: functional, organism-based; conditions: route po, time 21.0 day, DDE = dose-dependent effect
# [12] = target: T4, 5'-AMP-activated protein kinase (Mus musculus) (UniProt Q5EG47+Q8BRK8+Q6PAM0+O54950+Q91WG5+Q9R078+Q8BGM7); assay: In vivo activation of AMPK in mouse skeletal muscle assessed as increase in ACC phosphorylation level at 0.08 to 6.75 mg/kg,po by ELISA; format: functional, organism-based; conditions: Skeletal muscle tissue, dose 0.08-6.75 mg/kg, DDE = dose-dependent effect
# Mus musculus [13] = assay: Antidiabetic activity against po dosed type 2 diabetic KKAy mouse model assessed as acute glucose lowering effect measured for 1 to 6 hrs; format: functional, organism-based; conditions: time 1-6 hrs, DDE = dose-dependent effect
# Mus musculus [14] = assay: Antidiabetic activity against type 2 diabetic KKAy mouse model assessed as decrease in lipid accumulation in liver at 1.5 to 6 mg/kg,po bid measured on 25 to 26 days after insulin injection; format: functional, organism-based; conditions: dose 1.5-6 mg/kg, time 25-26 day
# Mus musculus [15] = assay: Antidiabetic activity against type 2 diabetic KKAy mouse model assessed as increase in Akt phosphorylation in skeletal muscle at 1.5 to 6 mg/kg,po bid measured on 25 to 26 days after insulin injection by ELISA; format: functional, organism-based; conditions: dose 1.5-6 mg/kg, time 25-26 day
# [16] = target: T4, 5'-AMP-activated protein kinase (Mus musculus); assay: In vivo activation of AMPK in mouse liver assessed as increase in AMPKalpha phosphorylation level at 0.08 to 6.75 mg/kg,po by western blot method; format: functional, organism-based; conditions: dose 0.08-6.75 mg/kg, DDE = dose-dependent effect
# Mus musculus [17] = assay: Antidiabetic activity against type 2 diabetic KKAy mouse model assessed as decrease in HbA1c level administrated orally bid measured after 21 days of administration by automatic analyzer; format: functional, organism-based; conditions: route po, time 21.0 day, DDE = dose-dependent effect
# AMPK alpha2/beta2/gamma1 (Homo sapiens), sequence (P54619 whole entry, looked up, one chain of several): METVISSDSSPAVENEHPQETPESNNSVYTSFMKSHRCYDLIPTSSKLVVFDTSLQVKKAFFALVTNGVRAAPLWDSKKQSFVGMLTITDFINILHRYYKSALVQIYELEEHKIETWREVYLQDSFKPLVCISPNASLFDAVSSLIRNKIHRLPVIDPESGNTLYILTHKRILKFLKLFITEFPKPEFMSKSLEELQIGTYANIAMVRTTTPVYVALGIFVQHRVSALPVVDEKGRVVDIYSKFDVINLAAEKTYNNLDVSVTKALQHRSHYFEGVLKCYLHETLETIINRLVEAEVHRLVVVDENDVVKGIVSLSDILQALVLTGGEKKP
# AMPK alpha2/beta2/gamma1 (Homo sapiens), sequence (P54646 whole entry, looked up, one chain of several): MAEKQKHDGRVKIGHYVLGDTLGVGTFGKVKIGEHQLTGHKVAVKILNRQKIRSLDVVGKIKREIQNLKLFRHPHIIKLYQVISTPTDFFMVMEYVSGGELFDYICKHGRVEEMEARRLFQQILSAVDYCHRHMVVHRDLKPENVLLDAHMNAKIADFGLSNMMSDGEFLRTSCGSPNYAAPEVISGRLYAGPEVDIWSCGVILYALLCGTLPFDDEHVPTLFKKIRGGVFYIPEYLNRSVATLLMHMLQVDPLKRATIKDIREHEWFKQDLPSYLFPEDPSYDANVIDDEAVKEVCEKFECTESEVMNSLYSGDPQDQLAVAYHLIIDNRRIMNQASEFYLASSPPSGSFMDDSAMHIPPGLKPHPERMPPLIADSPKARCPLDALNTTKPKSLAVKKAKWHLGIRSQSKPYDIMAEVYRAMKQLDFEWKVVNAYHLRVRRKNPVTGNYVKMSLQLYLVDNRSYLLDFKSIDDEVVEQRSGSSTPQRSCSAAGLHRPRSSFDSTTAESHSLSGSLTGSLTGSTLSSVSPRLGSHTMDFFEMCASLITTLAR
# Cytochrome P450 2C19, sequence (P33261 whole entry): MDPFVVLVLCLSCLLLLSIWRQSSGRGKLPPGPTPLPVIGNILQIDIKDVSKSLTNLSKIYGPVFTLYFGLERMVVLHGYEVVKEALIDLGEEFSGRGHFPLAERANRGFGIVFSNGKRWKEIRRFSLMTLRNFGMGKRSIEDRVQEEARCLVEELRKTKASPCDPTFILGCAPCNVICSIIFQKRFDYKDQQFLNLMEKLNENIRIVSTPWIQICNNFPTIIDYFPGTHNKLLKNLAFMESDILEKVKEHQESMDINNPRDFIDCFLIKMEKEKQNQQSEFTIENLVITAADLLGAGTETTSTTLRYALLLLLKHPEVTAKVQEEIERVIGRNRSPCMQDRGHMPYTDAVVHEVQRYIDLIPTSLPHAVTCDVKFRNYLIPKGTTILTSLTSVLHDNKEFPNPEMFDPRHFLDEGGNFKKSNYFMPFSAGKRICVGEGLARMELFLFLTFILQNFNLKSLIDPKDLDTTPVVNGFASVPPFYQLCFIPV
# Cytochrome P450 2D6, sequence (P10635 whole entry): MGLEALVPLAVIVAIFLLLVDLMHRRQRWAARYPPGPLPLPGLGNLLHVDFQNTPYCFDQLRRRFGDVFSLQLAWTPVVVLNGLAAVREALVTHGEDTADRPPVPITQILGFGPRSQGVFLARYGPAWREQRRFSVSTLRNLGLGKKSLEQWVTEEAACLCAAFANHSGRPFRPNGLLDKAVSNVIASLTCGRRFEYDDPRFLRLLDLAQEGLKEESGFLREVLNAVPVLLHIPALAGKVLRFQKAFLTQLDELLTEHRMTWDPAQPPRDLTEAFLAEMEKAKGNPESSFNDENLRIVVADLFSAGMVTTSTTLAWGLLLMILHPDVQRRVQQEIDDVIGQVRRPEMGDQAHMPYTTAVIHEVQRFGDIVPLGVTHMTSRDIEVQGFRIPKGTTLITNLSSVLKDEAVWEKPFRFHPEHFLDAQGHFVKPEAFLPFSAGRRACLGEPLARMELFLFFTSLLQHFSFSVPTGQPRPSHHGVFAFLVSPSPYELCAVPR
# Cytochrome P450 3A4, sequence (P08684 whole entry): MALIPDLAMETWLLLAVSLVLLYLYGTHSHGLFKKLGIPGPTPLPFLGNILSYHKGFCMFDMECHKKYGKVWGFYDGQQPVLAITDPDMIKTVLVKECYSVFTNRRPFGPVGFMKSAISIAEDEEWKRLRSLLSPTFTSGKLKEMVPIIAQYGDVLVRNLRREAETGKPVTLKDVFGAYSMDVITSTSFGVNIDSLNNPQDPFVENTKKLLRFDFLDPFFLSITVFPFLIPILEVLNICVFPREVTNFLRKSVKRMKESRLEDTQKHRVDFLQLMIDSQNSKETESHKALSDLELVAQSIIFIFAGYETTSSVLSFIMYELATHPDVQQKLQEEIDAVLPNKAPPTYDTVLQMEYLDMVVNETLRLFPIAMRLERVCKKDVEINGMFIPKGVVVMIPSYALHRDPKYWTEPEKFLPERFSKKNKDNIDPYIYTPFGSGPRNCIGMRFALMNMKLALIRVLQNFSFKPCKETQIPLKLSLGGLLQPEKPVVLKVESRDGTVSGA
# Cytochrome P450 2C9, sequence (P11712 whole entry): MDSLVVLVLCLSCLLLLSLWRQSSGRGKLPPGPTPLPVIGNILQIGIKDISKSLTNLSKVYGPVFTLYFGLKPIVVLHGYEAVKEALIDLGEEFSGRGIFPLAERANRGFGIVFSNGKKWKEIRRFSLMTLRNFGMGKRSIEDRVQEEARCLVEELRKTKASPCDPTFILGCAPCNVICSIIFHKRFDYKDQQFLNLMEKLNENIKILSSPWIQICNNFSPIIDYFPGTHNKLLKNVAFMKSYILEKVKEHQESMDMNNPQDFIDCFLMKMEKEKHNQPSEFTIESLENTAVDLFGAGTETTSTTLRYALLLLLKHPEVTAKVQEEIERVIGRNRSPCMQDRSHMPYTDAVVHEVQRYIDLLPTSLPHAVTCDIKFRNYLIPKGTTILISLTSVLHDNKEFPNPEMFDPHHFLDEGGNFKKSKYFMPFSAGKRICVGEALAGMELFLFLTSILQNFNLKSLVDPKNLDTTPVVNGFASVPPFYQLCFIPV
compound,measurement,setting,value
N#CC1=C(O)C2C(c3ccc(-c4ccccc4O)cc3)=CSC2NC1=O (stereo unspecified),pEC50,[1],6.10
Cn1c(O[C@@H]2CO[C@H]3[C@@H]2OC[C@H]3O)c(C#N)c2cc(-c3ccc(N4CCOCC4)cc3)c(Cl)cc21,EC150,[2],> 100 µM
N#Cc1c(O[C@@H]2CO[C@H]3[C@@H]2OC[C@H]3O)[nH]c2cc(Cl)c(-c3ccc(N4CCOCC4)cc3)cc12,EC150,[2]; filed as activator,0.039 µM
N#Cc1c(O[C@@H]2CO[C@H]3[C@@H]2OC[C@H]3O)[nH]c2cc(Cl)c(-c3ccc(N4CCOCC4)cc3)nc12,EC150,[2]; filed as activator,0.087 µM
O[C@@H]1CO[C@H]2[C@@H]1OC[C@H]2Oc1cc2nc(-c3ccc(N4CCOCC4)cc3)c(F)cc2[nH]1,EC150,[2]; filed as activator,0.0053 µM
CS(C)(=O)=Nc1ccc(-c2ccc(-c3nc4cc(O[C@@H]5CO[C@H]6[C@@H]5OC[C@H]6O)[nH]c4cc3F)cc2)cc1,EC150,[2]; filed as activator,0.001 µM
same,pIC50,Cytochrome P450 2D6,< 5.00
same,remaining at 0.5 h,[3],> 99%
same,pIC50,Cytochrome P450 3A4,< 5.00
same,AUC,[4],288 ng·h/mL
same,pIC50,Cytochrome P450 2C9,< 5.00
same,remaining at 0.5 h,[5],91%
same,pIC50,Cytochrome P450 1A2,< 5.00
same,Kp,[6],2.4
same,Kp,[7],0.61
same,pIC50,Cytochrome P450 2C19,< 5.00
same,fraction unbound,[8],0.016
same,Cmax,[9],68.7 ng/mL
O=C(c1ccc(-c2ccc(-c3nc4cc(O[C@@H]5CO[C@H]6[C@@H]5OC[C@H]6O)[nH]c4cc3F)cc2)cc1)N1CCCC1,EC150,[2]; filed as activator,0.0018 µM
same,pIC50,Cytochrome P450 2C19,5.13
same,fraction unbound,[8],0.01
O[C@@H]1CO[C@H]2[C@@H]1OC[C@H]2Oc1cc2nc(-c3ccc(-c4ccccc4)cc3)c(F)cc2[nH]1,EC150,[2]; filed as activator,0.017 µM
O=C1NC2SC(Cl)=C(c3ccc4c(c3O)CCCC4)C2C(O)=C1c1ccccc1 (stereo unspecified),pEC50,[10],5.89
COCCOc1ccc(-c2ccc(-c3nc4cc(O[C@@H]5CO[C@H]6[C@@H]5OC[C@H]6O)[nH]c4cc3F)cc2)cn1,EC150,[2]; filed as activator,0.016 µM
COc1ccc(-c2ccc(-c3nc4cc(O[C@@H]5CO[C@H]6[C@@H]5OC[C@H]6O)[nH]c4cc3F)cc2)cc1,EC150,[2]; filed as activator,0.011 µM
N#Cc1c(O[C@@H]2CO[C@H]3[C@@H]2OC[C@H]3O)[nH]c2ccc(-c3ccc(N4CCOCC4)cc3)cc12,EC150,[2]; filed as activator,0.38 µM
O=S1(=Nc2ccc(-c3ccc(-c4nc5cc(O[C@@H]6CO[C@H]7[C@@H]6OC[C@H]7O)[nH]c5cc4F)cc3)cc2)CCCC1,EC150,[2]; filed as activator,0.002 µM
same,remaining at 0.5 h,[3],98%
same,AUC,[4],251 ng·h/mL
same,remaining at 0.5 h,[5],86%
same,Kp,[6],3.34
same,Kp,[7],0.67
same,pIC50,Cytochrome P450 2C19,5.43
same,fraction unbound,[8],0.01
same,Cmax,[9],43 ng/mL
CS(C)(=O)=Nc1ccc(-c2ccc(-c3nc4cc(O[C@@H]5CO[C@H]6[C@@H]5OC[C@H]6O)[nH]c4cc3F)cc2)nc1,EC150,[2]; filed as activator,0.0034 µM
same,pIC50,Cytochrome P450 2D6,< 5.00
same,remaining at 0.5 h,[3],> 99%
same,pIC50,Cytochrome P450 3A4,< 5.00
same,AUC,[4],111 ng·h/mL
same,pIC50,Cytochrome P450 2C9,< 5.00
same,remaining at 0.5 h,[5],83%
same,pIC50,Cytochrome P450 1A2,< 5.00
same,Kp,[6],2.19
same,Kp,[7],0.98
same,pIC50,Cytochrome P450 2C19,< 5.00
same,fraction unbound,[8],0.072
same,Cmax,[9],44.8 ng/mL
O[C@@H]1CO[C@H]2[C@@H]1OC[C@H]2Oc1cc2nc(-c3ccc(N4CCOCC4)cc3)c(Cl)cc2[nH]1,EC150,[2]; filed as activator,0.0019 µM
CS(C)(=O)=Nc1ccc(-c2ccc(-c3nc4cc(O[C@@H]5CO[C@H](CO)C5)[nH]c4cc3F)cc2)cc1,EC150,[2]; filed as activator,0.001 µM
same,Activity,Mus musculus [11],Dde
same,remaining at 0.5 h,[3],94%
same,Activity,[12],Dde
same,Activity,Mus musculus [13],Dde
same,AUC,[4],810 ng·h/mL
same,remaining at 0.5 h,[5],90%
same,Activity,Mus musculus [14],Active
same,Kp,[6],7.14
same,Activity,Mus musculus [15],Active
same,Kp,[7],0.63
same,fraction unbound,[8],0.011
same,Activity,[16],Dde
same,Cmax,[9],130 ng/mL
same,Activity,Mus musculus [17],Dde
COCCOc1ccc(-c2ccc(-c3nc4cc(O[C@@H]5CO[C@H]6[C@@H]5OC[C@H]6O)[nH]c4cc3F)cc2)cc1,EC150,[2]; filed as activator,0.0073 µM
same,fraction unbound,[8],0.002

# — ChEMBL document CHEMBL5143699, “Identification of novel indole derivatives as highly potent AMPK activators with anti-diabetic profiles” (Bioorg Med Chem Lett, 2022)
